From ChEMBL document CHEMBL1137910, “Synthesis and biological activity of novel antibacterial quinazolines” (2004)

Key:
Type in all cases: functional
Shigella sonnei = test: Ability to inhibit growth of Shigella sonnei MTCC 2957 was determined
Enterococcus faecalis = test: Ability to inhibit growth of Enterococcus faecalis MTCC 439 was determined
Bacillus cereus = test: Ability to inhibit growth of Bacillus cereus MTCC 1272 was determined
Bacillus subtilis = test: Ability to inhibit growth of Bacillus subtilis MTCC 121 was determined
Staphylococcus aureus = test: Ability to inhibit growth of Staphylococcus aureus MTCC1430 was determined
Escherichia coli = test: Ability to inhibit growth of Escherichia coli MTCC 42 was determined
Pseudomonas aeruginosa = test: Ability to inhibit growth of Pseudomonas aeruginosa MTCC 1034 was determined
Proteus vulgaris = test: Ability to inhibit growth of Proteus vulgaris MTCC744 was determined
Klebsiella pneumoniae = test: Ability to inhibit growth of Klebsiella pneumoniae MTCC 109 was determined

| Structure (SMILES) | Growth Inhibition (Shigella sonnei) | Growth Inhibition (Enterococcus faecalis) | Growth Inhibition (Bacillus cereus) | Growth Inhibition (Bacillus subtilis) | Growth Inhibition (Staphylococcus aureus) | Growth Inhibition (Escherichia coli) | Growth Inhibition (Pseudomonas aeruginosa) | Growth Inhibition (Proteus vulgaris) | Growth Inhibition (Klebsiella pneumoniae) |
| --- | --- | --- | --- | --- | --- | --- | --- | --- | --- |
| COc1ccc(-c2nc(N3CCCCC3)nc3ccc(C)cc23)cc1 | 21 mm | 16 mm | 16 mm | 21 mm | 19 mm | 19 mm | 15 mm | 18 mm | 20 mm |
| Cc1ccc2nc(N3CCOCC3)nc(-c3ccccc3)c2c1 | 20 mm | 16 mm | 15 mm | 16 mm | 12 mm | 21 mm | 19 mm | 18 mm | 19 mm |
| COc1ccc(-c2nc(-c3ccccc3)nc3ccc(C)cc23)cc1 | 15 mm | 12 mm | 13 mm | 12 mm | 0 mm | 16 mm | 16 mm | 15 mm | 17 mm |
| Cc1ccc2nc(N3CCOCC3)nc(-c3ccc(N(C)C)cc3)c2c1 | 19 mm | 17 mm | 19 mm | 18 mm | 22 mm | 20 mm | 16 mm | 18 mm | 20 mm |
| O=C(O)c1cn(C2CC2)c2cc(N3CCNCC3)c(F)cc2c1=O [CIPROFLOXACIN] | 21 mm | 16 mm | 17 mm | 22 mm | 21 mm | 22 mm | 18 mm | 19 mm | 18 mm |
| Cc1ccc2nc(-c3ccccc3)nc(-c3ccc(N(C)C)cc3)c2c1 | 16 mm | 12 mm | 14 mm | 15 mm | 11 mm | 18 mm | 18 mm | 17 mm | 19 mm |
